Patent US20250163057A1, “DCN-1 MODULATING COMPOUNDS AND METHODS OF USE THEREOF” (Cellarity, Inc., priority 2023, published 2025)
Where two headings read alike, the source gives them in different places.

Legend:
DCN1 protein = DCN1 protein (Homo sapiens (Human), UniProt Q96GG9); experiment: Intact Protein MS Analysis with the RapidFire-TOF System (covalent adduct formation); assay type: binding; conditions: MS Emax; 400 nM DCN1, 3 hours at room temperature
Outline: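 Tag-cleaved human DCN1 (400 nM) expressed in E. coli, in 25 mM Tris-HCl, 200 mM NaCl, 1 mM DTT, was incubated with 11 compound concentrations for 3 h at room temperature and quenched with 0.2% formic acid. Intact-protein Q-TOF MS with deconvolution detected the compound adduct mass.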

[1] = test system: Cullin-3 (CUL3) neddylation; experiment: AlphaLISA assay for Cullin-3 (CUL3) neddylation in TF 1 cells; assay type: cell-based; conditions: Homo sapiens, TF-1, 3 h, 3 hours treatment
Outline: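 Neddylated CUL3 was quantified by AlphaLISA in lysates of TF 1 cells exposed for 3 h to test compound in IMDM without supplements. Percent inhibition set between vehicle and 1 μM DI-1548 positive control; IC50 derived by Hill-equation fitting of dose-response curves.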

[2] = molecular target: DCN1 (DCUND1) protein PONY domain (Homo sapiens (Human), UniProt Q96GG9); experiment: TR-FRET assay, DCN1 binding with FAM-labeled probe
Outline: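 TR-FRET ratio (Tb-DCN1 to FAM-probe) read at 1, 5 and 24 hrs after compound addition. Protein: recombinant PONY domain from E. coli, biotinylated and coupled to streptavidin terbium. Either 5 nM DCN1 with 20 nM FAM-probe, or 0.31 nM DCN1 with 100 nM FAM-labelled plus 800 nM unlabelled probe.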

[3] = 24 hr after treatment with compound, read-out: TR FRET IC50 24 hr
[4] = TR FRET IC50 1 hr (nM), 1 hr after treatment with compound
[5] = read-out: TR FRET IC50 1 hr, 1 hr after treatment with compound

Chain of DCN1 (DCUND1) protein PONY domain (Q96GG9 60-248): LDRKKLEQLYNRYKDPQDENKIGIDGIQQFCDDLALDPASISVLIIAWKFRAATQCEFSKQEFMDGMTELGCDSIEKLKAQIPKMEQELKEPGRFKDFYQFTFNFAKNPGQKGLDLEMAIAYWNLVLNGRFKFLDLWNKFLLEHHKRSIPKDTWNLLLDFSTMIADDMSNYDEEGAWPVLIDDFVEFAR
Chain of DCN1 protein (Q96GG9 whole entry): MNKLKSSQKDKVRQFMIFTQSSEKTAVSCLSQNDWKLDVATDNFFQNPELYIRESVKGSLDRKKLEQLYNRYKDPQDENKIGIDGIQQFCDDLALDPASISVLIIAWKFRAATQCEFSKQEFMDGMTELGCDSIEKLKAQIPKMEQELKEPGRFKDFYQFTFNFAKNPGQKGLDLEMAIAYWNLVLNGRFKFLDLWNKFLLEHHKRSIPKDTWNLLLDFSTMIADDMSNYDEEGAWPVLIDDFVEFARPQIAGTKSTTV

Row | SMILES | % Adduct Formation (DCN1 protein) | IC50 [1] | IC50 [2, 3] | IC50 [2, 4] | IC50 [2, 5]
1 | CCN1C(=O)[C@@H](NC(=O)c2ccn(C(F)(F)F)n2)[C@@H](c2ccc(F)cc2)c2c(C(=O)N3CCC[C@H]3C#N)nn(-c3ccccc3)c21 [Compound I-343, N-((4S,5S)-3-((S)-2-cyanopyrrolidine-1-carbonyl)-7-ethyl-4-(4-fluorophenyl)-6-oxo-1-phenyl-4,5,6,7-tetrahydro-1H-pyrazolo[3,4-b]pyridin-5-yl)-1-(trifluoromethyl)-1H-pyrazole-3-carboxamide] | ++ (MS Emax % adduct formation greater than 30.0 and less than or equal to 80.0) | ≤ 0.1 µM | ≤ 200 nM | 1000 to 3000 nM | 
2 | CCN1C(=O)[C@@H](NC(=O)c2ccn(C(F)(F)F)n2)[C@@H](c2ccc(F)cc2)c2c(C(=O)N3[C@H](C#N)C[C@H]4C[C@H]43)nn(-c3ccccc3)c21 [Compound I-344] | ++ (MS Emax % adduct formation greater than 30.0 and less than or equal to 80.0) | ≤ 0.1 µM | ≤ 200 nM | 200 to 1000 nM | 
3 | CCN1C(=O)[C@@H](NC(=O)c2ccn(C(F)(F)F)n2)[C@@H](c2ccc(F)cc2)c2c(C(=O)N3CCOC[C@H]3C#N)nn(-c3ccccc3)c21 [Compound I-345] | +++ (MS Emax % adduct formation greater than 80.0 and less than or equal to 100.0) | ≤ 0.1 µM | ≤ 200 nM | 200 to 1000 nM | 
4 | CCN1C(=O)[C@@H](NC(=O)c2ccn(C(F)(F)F)n2)[C@@H](c2ccc(F)cc2)c2c(C(=O)N3CCNC[C@H]3C#N)nn(-c3ccccc3)c21 [Compound I-346, N-((4S,5S)-3-((S)-2-cyanopiperazine-1-carbonyl)-7-ethyl-4-(4-fluorophenyl)-6-oxo-1-phenyl-4,5,6,7-tetrahydro-1H-pyrazolo[3,4-b]pyridin-5-yl)-1-(trifluoromethyl)-1H-pyrazole-3-carboxamide] | +++ (MS Emax % adduct formation greater than 80.0 and less than or equal to 100.0) | ≤ 0.1 µM | ≤ 200 nM | 200 to 1000 nM | 
5 | CCN1C(=O)[C@@H](NC(=O)c2cccc(C(F)(F)F)c2)[C@@H](c2ccc(F)cc2)c2c(C(=O)N3CCC[C@H]3C#N)nn(-c3cccc(OCCN(C)C4COC4)c3)c21 [Compound I-347] | +++ (MS Emax % adduct formation greater than 80.0 and less than or equal to 100.0) | ≤ 0.1 µM | ≤ 200 nM | 200 to 1000 nM | 
6 | CCN1C(=O)[C@@H](NC(=O)c2cccc(C(F)(F)F)c2)[C@@H](c2ccc(F)cc2)c2c(C(=O)N(CC#N)C3CC3)nn(C3CCOCC3)c21 [Compound I-351] | +++ (MS Emax % adduct formation greater than 80.0 and less than or equal to 100.0) | ≤ 0.1 µM | ≤ 200 nM |  | ≤ 200 nM
7 | CCN1C(=O)[C@@H](NC(=O)c2cccc(C(F)(F)F)c2)[C@@H](c2ccc(F)cc2)c2c(C(=O)N(CC#N)CCN(C)C)nn(C3CCOCC3)c21 [Compound I-352] | +++ (MS Emax % adduct formation greater than 80.0 and less than or equal to 100.0) | ≤ 0.1 µM | ≤ 200 nM |  | ≤ 200 nM
8 | CCN1C(=O)[C@@H](NC(=O)c2cccc(C(F)(F)F)c2)[C@@H](c2ccc(F)cc2)c2c(C(=O)N(CC#N)CCCN(C)C)nn(C3CCOCC3)c21 [Compound I-353] | +++ (MS Emax % adduct formation greater than 80.0 and less than or equal to 100.0) | ≤ 0.1 µM | ≤ 200 nM |  | ≤ 200 nM
9 | CCN1C(=O)[C@@H](NC(=O)c2cccc(C(F)(F)F)c2)[C@@H](c2ccc(F)cc2)c2c(C(=O)N3CCC[C@H]3C#N)nn(C3CC3)c21 [Compound I-354] | ++ (MS Emax % adduct formation greater than 30.0 and less than or equal to 80.0) | ≤ 0.1 µM | ≤ 200 nM |  | ≤ 200 nM
10 | CCN1C(=O)[C@@H](NC(=O)c2cccc(C(F)(F)F)c2)[C@@H](c2ccc(F)cc2)c2c(C(=O)N(CC#N)C3CC3)nn(C3CC3)c21 [Compound I-355] | +++ (MS Emax % adduct formation greater than 80.0 and less than or equal to 100.0) | ≤ 0.1 µM | ≤ 200 nM |  | ≤ 200 nM
11 | CCCn1nc(C(=O)N(CC#N)C2CC2)c2c1N(CC)C(=O)[C@@H](NC(=O)c1cccc(C(F)(F)F)c1)[C@H]2c1ccc(F)cc1 [Compound I-356] | +++ (MS Emax % adduct formation greater than 80.0 and less than or equal to 100.0) | ≤ 0.1 µM | ≤ 200 nM | 200 to 1000 nM | 
